Data on four molecules can be found in patent EP2364976B1, “S1P receptor modulating compounds and use thereof” (EPIX Pharmaceuticals, Inc., priority 2007, dated 2007).

In this experiment the target is T1, hS1P1 (Homo sapiens, UniProt P21453).
T1 construct: expressed in transfected cells
T1 sequence (P21453 whole entry): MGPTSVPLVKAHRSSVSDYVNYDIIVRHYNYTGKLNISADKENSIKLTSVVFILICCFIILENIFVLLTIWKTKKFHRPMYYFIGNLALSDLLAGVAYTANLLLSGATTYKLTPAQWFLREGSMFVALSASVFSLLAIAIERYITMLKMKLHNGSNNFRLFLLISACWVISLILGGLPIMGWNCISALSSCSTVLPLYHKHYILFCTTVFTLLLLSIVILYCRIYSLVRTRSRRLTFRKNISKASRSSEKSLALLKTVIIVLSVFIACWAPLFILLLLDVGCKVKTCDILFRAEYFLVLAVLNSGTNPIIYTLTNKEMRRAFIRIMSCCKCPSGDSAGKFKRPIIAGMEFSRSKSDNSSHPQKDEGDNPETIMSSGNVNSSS
In words: hS1P1 EC50 (S1P receptor Ca2+ flux protocol, FLIPR, CHO K1 Gqi5 cells). The class given is cell-based. The settings on record: several values per compound = repeat determinations as printed. In short, it runs like this: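 Calcium flux (FLIPR) in CHO K1 cells stably expressing Gqi5 and N-terminally V5-tagged human S1P1, loaded with calcium dye 90 min at RT. Peak fluorescence recorded 90 s after compound addition (10-point 3x dilution, 0.25% DMSO), normalized to 200 nM S1P (100%) and buffer (0%); EC50 from 4-parameter fit.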
On the technique in general: A change in cytosolic calcium serves as a functional read-out for many receptors and channels.
As usually defined, the EC50 is the concentration needed to bring the measured effect to its halfway point. High values mean a need for much substance, low ones an effect from little substance. For `O=C(O)C1CN(Cc2ccc(-c3nc4ccc(Cc5ccccc5)cc4s3)c(F)c2)C1` [Reference Compound 118, 1-((4-(6-Benzylbenzo[d]thiazol-2-yl)-3-fluorophenyl)methyl)azetidine-3-carboxylic acid], the EC50 amounted to 149 nM.

Regarding `O=C(O)C1CN(Cc2cnc(-c3cc4cc(Cc5ccccc5)ccc4o3)nc2)C1` [Reference Compound 121, 1-((2-(5-Benzylbenzofuran-2-yl)pyrimidin-5-yl)methyl)azetidine-3-carboxylic acid], the EC50 is 1320 nM.

The molecule `Cc1nc(-c2cc3cc(Cc4ccccc4)ccc3o2)ccc1CN1CC(C(=O)O)C1` [Reference Compound 122, 1-((6-(5-Benzylbenzofuran-2-yl)-2-methylpyridin-3-yl)methyl)azetidine-3-carboxylic acid] showed an EC50 of 420 nM.

As for `CC(c1ccc(-c2cc3cc(Cc4ccccc4)ccc3o2)c(F)c1)N1CC(C(=O)O)C1` (stereo not shown) [Reference Compound 123, 1-(1-(4-(5-benzylbenzofuran-2-yl)-3-fluorophenyl)ethyl)azetidine-3-carboxylic acid], the half-maximal effective concentration (EC50) was 313 nM.
